Laboratory results from patent publication US20070207198A1, “Use Of N-Acety1-D-Glucosamine In The Manufacture Of Medicaments For Anti-Tumors And Anti-Metastasis” (Beijing Sino-Hong Kong Dafu Science & Technology of Biowave …, priority 2003, published 2007).

Columns and labels:
[1] = Typical case: breast cancer patient, metastasis after operation; format: in vivo, human; conditions: injection 15 g/60 kg/day before and for a week after the operation; within one year after the operation
Description: Chen, female, was accepted by the Department of Surgery of Chuanxinan Mining Area Hospital for suffering with breast cancer. The chief physician, Chen Qi, considered the high metastasis rate after operation, administrated Chen via injected with the compound of formula (I) in a dose of 15 g/60 kg/day before the operation and for a continuous week after the operation.

[2] = tested on: Proteus Mirabilis; assay: Promoting wave test (bio-wave model); format: cell-based; conditions: final concentration 0.5% on LB plate, 37° C.
Description: 2. Experimental results and evaluation: • The experiment adopted a bio-wave model for studying the promoting wave function of the compound of formula (I).

[3] = in vivo
Description: 1. Acute toxicity test: including tests of administrating medicine orally, intravenous injection and maximum limit amount for administration;

[4] = tested on: B16 cells; assay: Sole-injected B16 tumor growth in mice; format: in vivo, Kunming mice and Balbc mice; set-up: Diameter of tumor: unit not given here; conditions: for Diameter of tumor: 10% aqueous solution i.p.
Procedure: 1.1 Animals Kunming mice, Scad male mice
1.2 Tumor cells: B16 cells, PG cells and Biu cells, which were presented by from the Staff Room of Pathology of the present university and the Tumor Department of the Second Affiliated Hospital, respectively.
1.3 Methods: soles of Kunming mice and Balbc mice were injected with B16 cell suspension, and these mice were intraperitoneally injected with 10% aqueous solution of the compound of formula (I) at 0th, 4th and 7th day after B16 cells were injected.

Q: For `CC(=O)N[C@@H]1[C@@H](O)[C@H](O)[C@@H](CO)O[C@H]1O` [compound of formula (I), N-acetyl-D-glucosamine], which metastasis after operation [1] is on record?
A: no metastasis occurred

Q: And the “promoting wave function (ring pattern compared with control)” value [2]?
A: many fine waves on each ring emerged

Q: And the “acute dosage relative to the injection dosage for human being” value [3]?
A: 300 times

Q: What about the “dosage at which the acute toxicosis reaction had not appeared” value [3] of the same compound?
A: more than 2 g/kg

Q: What about the Diameter of tumor ([4]; Group I (administered immediately), observation time 3) of the same compound?
A: 0

Q: What about the Diameter of tumor ([4]; Group I (administered immediately), observation time 7) of the same compound?
A: 0.11

Q: What about the Diameter of tumor ([4]; Group I (administered immediately), observation time 14) of the same compound?
A: 0.18

Q: And the Diameter of tumor ([4]; Group I (administered immediately), observation time 21)?
A: 0.21

Q: And the Diameter of tumor ([4]; Group I (administered immediately), observation time 28)?
A: 0.15

Q: And the Diameter of tumor ([4]; Group II (administered at the 4th day), observation time 3)?
A: 0.05

Q: What about the Diameter of tumor ([4]; Group II (administered at the 4th day), observation time 7) of the same compound?
A: 0.12

Q: What about the Diameter of tumor ([4]; Group II (administered at the 4th day), observation time 14) of the same compound?
A: 0.43

Q: And the Diameter of tumor ([4]; Group II (administered at the 4th day), observation time 21)?
A: 0.58

Q: And the Diameter of tumor ([4]; Group II (administered at the 4th day), observation time 28)?
A: 0.72

Q: And the Diameter of tumor ([4]; Group III (administered at the 7th day), observation time 3)?
A: 0.1

Q: What about the Diameter of tumor ([4]; Group III (administered at the 7th day), observation time 7) of the same compound?
A: 0.21

Q: What about the Diameter of tumor ([4]; Group III (administered at the 7th day), observation time 14) of the same compound?
A: 0.60

Q: What about the Diameter of tumor ([4]; Group III (administered at the 7th day), observation time 21) of the same compound?
A: 1.10

Q: What about the Diameter of tumor ([4]; Group III (administered at the 7th day), observation time 28) of the same compound?
A: 1.38

Q: And the growth of tumor ([4]; high concentration intraperitoneally injected, B16 cells)?
A: inhibited
